Measured values as given in ChEMBL document CHEMBL1955858, “Synthesis and biological evaluation of novel amprenavir-based P1-substituted bi-aryl derivatives as ultra-potent HIV-1 protease inhibitors” (Bioorg Med Chem Lett, 2012).

Columns and labels:
[1] = Cytostatic activity against human C8166 cells by MTT assay; format: cell-based
Protease = Protease (Human immunodeficiency virus 1, UniProt Q9YQ12); test: Inhibition of HIV1 protease using Arg-Glu(EDANS)-Ser-Gln-Asn-Tyr-Pro-Ile-Val-Gln-Lys(DABCYL)- Arg as substrate for 20 to 30 mins by FRET analysis
Protease, sequence (Q9YQ12 whole entry): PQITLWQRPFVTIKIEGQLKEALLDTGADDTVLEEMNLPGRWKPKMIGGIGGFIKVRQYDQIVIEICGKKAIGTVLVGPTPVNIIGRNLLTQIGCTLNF

[2] = Selectivity index, ratio of CC50 for human C8166 cells to EC50 for HIV1 3B; format: toxicity, cell-based; settings: read-out: Ratio CC50/EC50
[3] = test system: Human immunodeficiency virus 1; test: Antiviral activity against HIV1 3B infected in human C8166 cells assessed as inhibition of syncytia formation after 3 days; format: functional, organism-based; settings: Human immunodeficiency virus 1, 3B, C8166, 72 h
[4] = test system: Human immunodeficiency virus 1; test: Ratio of amprenavir EC50 to compound EC50 for HIV1 3B; format: functional
[5] = target: Protease (Human immunodeficiency virus 1) (UniProt Q9YQ12); test: Ratio of amprenavir Ki to compound Ki for HIV1 protease
Protease (Human immunodeficiency virus 1), sequence (Q9YQ12 as listed by the source): as the sequence (Q9YQ12 whole entry) above

Row | SMILES | Ki (Protease) | EC50 [3] | Ratio Ki [5] | CC50 [1] | selectivity ratio [2] | Ratio EC50 [4]
1 | COc1ccc(S(=O)(=O)N(CC(C)C)C[C@@H](O)[C@H](Cc2ccc(-c3ccc(F)cc3)cc2)NC(=O)O[C@H]2CCOC2)cc1 | 5.8 nM | 3.98 nM | – | 140000 nM | 35200 | –
2 | COc1ccc(S(=O)(=O)N(CC(C)C)C[C@@H](O)[C@H](Cc2ccc(-c3ccc(OC(F)(F)F)cc3)cc2)NC(=O)O[C@H]2CCOC2)cc1 | 5.2 nM | 6.04 nM | – | 170000 nM | 28100 | –
3 | COc1ccc(S(=O)(=O)N(CC(C)C)C[C@@H](O)[C@H](Cc2ccc(-c3ccc(OC)c(C)c3)cc2)NC(=O)O[C@H]2CCOC2)cc1 | 1.8 nM | 3.63 nM | – | 170000 nM | 46800 | –
4 | COc1ccc(S(=O)(=O)N(CC(C)C)C[C@@H](O)[C@H](Cc2ccc(-c3ccc(SC)cc3)cc2)NC(=O)O[C@H]2CCOC2)cc1 | 7.4 nM | 6.89 nM | – | 240000 nM | 34800 | –
5 | COc1ccc(S(=O)(=O)N(CC(C)C)C[C@@H](O)[C@H](Cc2ccc(-c3ccc(C(C)=O)cc3)cc2)NC(=O)O[C@H]2CCOC2)cc1 | 5.8 nM | 2.32 nM | – | 210000 nM | 90500 | –
6 | COc1ccc(S(=O)(=O)N(CC(C)C)C[C@@H](O)[C@H](Cc2ccc(-c3cccc(C#N)c3)cc2)NC(=O)O[C@H]2CCOC2)cc1 | 8.1 nM | 9.2 nM | – | 320000 nM | 34800 | –
7 | COC(=O)c1cccc(-c2ccc(C[C@H](NC(=O)O[C@H]3CCOC3)[C@H](O)CN(CC(C)C)S(=O)(=O)c3ccc(OC)cc3)cc2)c1 | 1.6 nM | 3.46 nM | – | 190000 nM | 54900 | –
8 | COc1ccc(S(=O)(=O)N(CC(C)C)C[C@@H](O)[C@H](Cc2ccc(-c3ccc(C(=O)O)cc3)cc2)NC(=O)O[C@H]2CCOC2)cc1 | 1.9 nM | 5.53 nM | – | 140000 nM | 25300 | –

Second part, led by results:

Row | Ki (Protease) | EC50 [3] | Ratio Ki [5] | SMILES | CC50 [1] | selectivity ratio [2] | Ratio EC50 [4]
9 | 0.086 nM | 0.1 nM | – | CC(C)CN(C[C@@H](O)[C@H](Cc1ccc(-c2ccncc2)cc1)NC(=O)O[C@H]1CCOC1)S(=O)(=O)c1ccc(N)cc1 | 260000 nM | 2.6e+06 | 30
10 | 0.84 nM | 2.93 nM | – | CC(C)CN(C[C@@H](O)[C@H](Cc1ccccc1)NC(=O)O[C@H]1CCOC1)S(=O)(=O)c1ccc(N)cc1 [AMPRENAVIR] | 230000 nM | 78500 | –
11 | 6.4 nM | 4.29 nM | – | COc1ccc(S(=O)(=O)N(CC(C)C)C[C@@H](O)[C@H](Cc2ccc(-c3ccc(Cl)cc3)cc2)NC(=O)O[C@H]2CCOC2)cc1 | 230000 nM | 53600 | –
12 | 0.33 nM | 0.1 nM | 2 | CC(C)CN(C[C@@H](O)[C@H](Cc1ccc(-c2cccnc2)cc1)NC(=O)O[C@H]1CCOC1)S(=O)(=O)c1ccc(N)cc1 | 200000 nM | 2e+06 | 30
13 | 1.6 nM | 3.08 nM | – | COc1ccc(S(=O)(=O)N(CC(C)C)C[C@@H](O)[C@H](Cc2ccc(-c3cccnc3)cc2)NC(=O)O[C@H]2CCOC2)cc1 | 210000 nM | 68200 | –
14 | 3.8 nM | 2.68 nM | – | COc1ccc(S(=O)(=O)N(CC(C)C)C[C@@H](O)[C@H](Cc2ccc(-c3ccncc3)cc2)NC(=O)O[C@H]2CCOC2)cc1 | 260000 nM | 97000 | –
15 | 3.5 nM | 4.48 nM | – | COc1ccc(S(=O)(=O)N(CC(C)C)C[C@@H](O)[C@H](Cc2ccc(-c3ccsc3)cc2)NC(=O)O[C@H]2CCOC2)cc1 | 160000 nM | 35700 | –
16 | 1.98 nM | 2.25 nM | – | CC(C)CN(C[C@@H](O)[C@H](Cc1ccc(-c2ccccc2)cc1)NC(=O)O[C@H]1CCOC1)S(=O)(=O)c1ccc(N)cc1 | 32000 nM | 14200 | –
17 | 4.3 nM | 4.3 nM | – | COc1ccc(S(=O)(=O)N(CC(C)C)C[C@@H](O)[C@H](Cc2ccc(-c3cccc(O)c3)cc2)NC(=O)O[C@H]2CCOC2)cc1 | 41000 nM | 9540 | –
